PubChem BioAssay (NCI)
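Compound exposure: 48 hours, 5 concentrations, 96-well plates. TGI denotes the concentration required for complete inhibition of growth.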

Columns and labels:
Assay in all cases: NCI tumour cell line growth inhibition, 48 h
[1] = tested on: A498 renal
[2] = tested on: A549 NSCLC
[3] = tested on: ACHN renal
[4] = tested on: CCRF-CEM leukemia
[5] = tested on: COLO 205 colon
[6] = tested on: DLD-1 colon
[7] = tested on: DMS 114 small cell lung
[8] = tested on: DMS 273 small cell lung
[9] = tested on: EKVX NSCLC
[10] = tested on: HCC-2998 colon
[11] = tested on: HCT-116 colon
[12] = tested on: HCT-15 colon
[13] = tested on: HL-60(TB) leukemia
[14] = tested on: HOP-62 NSCLC
[15] = tested on: HOP-92 NSCLC
[16] = tested on: HT29 colon
[17] = tested on: IGROV1 ovarian
[18] = tested on: K-562 leukemia
[19] = tested on: KM12 colon
[20] = tested on: KM20L2 colon
[21] = tested on: LOX IMVI melanoma
[22] = tested on: LXFL 529 NSCLC
[23] = tested on: M14 melanoma
[24] = tested on: M19-MEL melanoma
[25] = tested on: MALME-3M melanoma
[26] = tested on: MOLT-4 leukemia
[27] = tested on: NCI-H226 lung
[28] = tested on: NCI-H23 lung
[29] = tested on: NCI-H460 lung
[30] = tested on: NCI-H522 lung
[31] = tested on: OVCAR-3 ovarian
[32] = tested on: OVCAR-4 ovarian
[33] = tested on: OVCAR-5 ovarian
[34] = tested on: OVCAR-8 ovarian
[35] = tested on: RXF 393 renal
[36] = tested on: SF-268 CNS
[37] = tested on: SF-295 CNS
[38] = tested on: SF-539 CNS
[39] = tested on: SK-MEL-2 melanoma
[40] = tested on: SK-MEL-28 melanoma
[41] = tested on: SK-MEL-5 melanoma
[42] = tested on: SK-OV-3 ovarian
[43] = tested on: SN12C renal
[44] = tested on: SNB-19 CNS
[45] = tested on: SNB-75 CNS
[46] = tested on: SNB-78 CNS
[47] = tested on: SR leukemia
[48] = tested on: SW-620 colon
[49] = tested on: TK-10 renal
[50] = tested on: U251 CNS
[51] = tested on: UACC-257 melanoma
[52] = tested on: UACC-62 melanoma
[53] = tested on: XF 498 CNS
[54] = tested on: 786-0 renal
[55] = tested on: CAKI-1 renal
[56] = tested on: DU-145 prostate
[57] = tested on: HOP-18 NSCLC
[58] = tested on: HS 578T breast
[59] = tested on: MDA-MB-231 breast
[60] = tested on: MDA-MB-435
[61] = tested on: MDA-N
[62] = tested on: NCI/ADR-RES ovarian
[63] = tested on: PC-3 prostate
[64] = tested on: RPMI-8226 leukemia
[65] = tested on: T-47D breast
[66] = tested on: UO-31 renal

With N#CN=Nc1cc(Cl)c(N=NC#N)cc1Cl the TGI [1] was over 100 µM, the TGI [2] was over 100 µM and the TGI [3] was over 100 µM. The TGI [4] was 92.2 µM, the TGI [5] was over 100 µM and the TGI [6] was over 100 µM. It also gave a TGI [7] of over 100 µM, a TGI [8] of over 100 µM and a TGI [9] of over 100 µM. For the same molecule, the TGI [10] was over 100 µM, the TGI [11] was over 100 µM and the TGI [12] was over 100 µM. It also gave a TGI [13] of over 100 µM, a TGI [14] of over 100 µM and a TGI [15] of over 100 µM. The TGI [16] was over 100 µM, the TGI [17] was over 100 µM and the TGI [18] was over 100 µM. For the same molecule, the TGI [19] was over 100 µM, the TGI [20] was over 100 µM and the TGI [21] was over 100 µM. It also gave a TGI [22] of over 100 µM, a TGI [23] of over 100 µM and a TGI [24] of over 100 µM. For the same molecule, the TGI [25] was over 100 µM, the TGI [26] was over 100 µM and the TGI [27] was over 100 µM. The TGI [28] was over 100 µM, the TGI [29] was over 100 µM and the TGI [30] was over 100 µM. For the same molecule, the TGI [31] was over 100 µM, the TGI [32] was over 100 µM and the TGI [33] was over 100 µM. It also gave a TGI [34] of over 100 µM, a TGI [35] of over 100 µM and a TGI [36] of over 100 µM. It also gave a TGI [37] of over 100 µM, a TGI [38] of over 100 µM and a TGI [39] of over 100 µM. For the same molecule, the TGI [40] was over 100 µM, the TGI [41] was over 100 µM and the TGI [42] was over 100 µM. The TGI [43] was over 100 µM, the TGI [44] was over 100 µM and the TGI [45] was over 100 µM. The TGI [46] was over 100 µM, the TGI [47] was over 100 µM and the TGI [48] was over 100 µM. It also gave a TGI [49] of over 100 µM, a TGI [50] of over 100 µM and a TGI [51] of over 100 µM. It also gave a TGI [52] of over 100 µM and a TGI [53] of over 100 µM.

CC1=CC2=C(OCO1)C(=O)c1ccccc1C2=O gave a TGI [54] of over 56.9 µM, a TGI [1] of 29.5 µM and a TGI [2] of 38.9 µM. The TGI [3] was 18.6 µM, the TGI [55] was over 94 µM and the TGI [4] was 45.7 µM. For the same molecule, the TGI [5] was 11.5 µM, the TGI [6] was 81.9 µM and the TGI [7] was 12.1 µM. It also gave a TGI [8] of 26.7 µM, a TGI [56] of 3.67 µM and a TGI [9] of over 100 µM. It also gave a TGI [10] of over 100 µM, a TGI [11] of 19.6 µM and a TGI [12] of 51.6 µM. The TGI [13] was 23.1 µM, the TGI [57] was 27.1 µM and the TGI [14] was 15.1 µM. For the same molecule, the TGI [15] was 23 µM, the TGI [58] was 4.25 µM and the TGI [16] was 16.8 µM. For the same molecule, the TGI [17] was 27.6 µM, the TGI [18] was 40.3 µM and the TGI [19] was 21.9 µM. It also gave a TGI [20] of 46.6 µM, a TGI [21] of 8.38 µM and a TGI [22] of 52.8 µM. It also gave a TGI [23] of 8.97 µM, a TGI [24] of 3.58 µM and a TGI [25] of 6.48 µM. For the same molecule, the TGI [59] was 22.4 µM, the TGI [60] was 2770 nM and the TGI [61] was 1480 nM. For the same molecule, the TGI [26] was 25.3 µM, the TGI [27] was 30.2 µM and the TGI [28] was 8.06 µM. The TGI [29] was 19.1 µM, the TGI [30] was 8.87 µM and the TGI [62] was 9.94 µM. It also gave a TGI [31] of 13.3 µM, a TGI [32] of 8.5 µM and a TGI [33] of 10.8 µM. The TGI [34] was 32.3 µM, the TGI [63] was over 100 µM and the TGI [64] was over 100 µM. For the same molecule, the TGI [35] was 12.5 µM, the TGI [36] was 26.1 µM and the TGI [37] was 8.61 µM. For the same molecule, the TGI [38] was 12.8 µM, the TGI [39] was 2.23 µM and the TGI [40] was 10.3 µM. The TGI [41] was 5.27 µM, the TGI [42] was 48.9 µM and the TGI [43] was 11.4 µM. The TGI [44] was 34 µM, the TGI [45] was 9.1 µM and the TGI [46] was over 100 µM. The TGI [47] was 41.7 µM, the TGI [48] was 21.6 µM and the TGI [65] was 7.47 µM. The TGI [49] was over 81.3 µM, the TGI [50] was 13.3 µM and the TGI [51] was 7.29 µM. For the same molecule, the TGI [52] was 9.89 µM and the TGI [66] was 28.7 µM.

Cc1nc(Nc2nnc(-c3cc([N+](=O)[O-])cc([N+](=O)[O-])c3C)o2)sc1C(=O)CC(=O)Cc1nc2ccc(Cl)cc2[nH]c1=O was tested, and the TGI [1] was over 100 µM, the TGI [2] was over 100 µM and the TGI [3] was over 100 µM. It also gave a TGI [55] of over 100 µM, a TGI [4] of over 100 µM and a TGI [5] of over 100 µM. For the same molecule, the TGI [7] was over 100 µM, the TGI [8] was over 100 µM and the TGI [9] was over 100 µM. It also gave a TGI [10] of over 100 µM, a TGI [11] of over 100 µM and a TGI [12] of over 100 µM. It also gave a TGI [13] of over 100 µM, a TGI [14] of over 100 µM and a TGI [15] of over 100 µM. For the same molecule, the TGI [16] was over 100 µM, the TGI [17] was over 100 µM and the TGI [18] was over 100 µM. It also gave a TGI [19] of over 100 µM, a TGI [20] of over 100 µM and a TGI [21] of over 100 µM. It also gave a TGI [22] of over 100 µM, a TGI [23] of over 100 µM and a TGI [24] of over 100 µM. For the same molecule, the TGI [26] was over 100 µM, the TGI [27] was over 100 µM and the TGI [28] was over 100 µM. It also gave a TGI [29] of over 100 µM, a TGI [30] of over 100 µM and a TGI [32] of over 100 µM. It also gave a TGI [33] of over 100 µM, a TGI [34] of over 100 µM and a TGI [64] of over 100 µM. For the same molecule, the TGI [35] was over 100 µM, the TGI [36] was over 100 µM and the TGI [37] was over 100 µM. For the same molecule, the TGI [38] was over 100 µM, the TGI [39] was over 100 µM and the TGI [40] was over 100 µM. For the same molecule, the TGI [41] was over 100 µM, the TGI [42] was over 100 µM and the TGI [43] was over 100 µM. The TGI [44] was over 100 µM, the TGI [45] was over 100 µM and the TGI [46] was over 100 µM. The TGI [47] was over 100 µM, the TGI [48] was over 100 µM and the TGI [49] was over 100 µM. For the same molecule, the TGI [50] was over 100 µM, the TGI [51] was over 100 µM and the TGI [52] was over 100 µM. The TGI [66] was over 100 µM and the TGI [53] was over 100 µM.

CC(=O)CC(=O)N(CCN(C(=O)CC(C)=O)c1ccccc1)c1ccccc1 gave a TGI [54] of over 100 µM, a TGI [1] of over 100 µM and a TGI [2] of over 100 µM. The TGI [3] was over 100 µM, the TGI [55] was over 100 µM and the TGI [4] was over 100 µM. It also gave a TGI [5] of over 100 µM, a TGI [6] of over 100 µM and a TGI [7] of over 100 µM. For the same molecule, the TGI [9] was over 100 µM, the TGI [10] was over 100 µM and the TGI [11] was over 100 µM. It also gave a TGI [13] of over 100 µM, a TGI [57] of over 100 µM and a TGI [14] of over 100 µM. For the same molecule, the TGI [15] was over 100 µM, the TGI [17] was over 100 µM and the TGI [18] was over 100 µM. For the same molecule, the TGI [19] was over 100 µM, the TGI [20] was over 100 µM and the TGI [21] was over 100 µM. For the same molecule, the TGI [22] was over 100 µM, the TGI [23] was over 100 µM and the TGI [24] was over 100 µM. The TGI [25] was over 100 µM, the TGI [26] was over 100 µM and the TGI [27] was over 100 µM. It also gave a TGI [28] of over 100 µM, a TGI [29] of over 100 µM and a TGI [30] of over 100 µM. The TGI [31] was over 100 µM, the TGI [32] was over 100 µM and the TGI [33] was over 100 µM. It also gave a TGI [34] of over 100 µM, a TGI [64] of over 100 µM and a TGI [35] of over 100 µM. The TGI [36] was over 100 µM, the TGI [37] was over 100 µM and the TGI [38] was over 100 µM. For the same molecule, the TGI [39] was over 100 µM, the TGI [40] was over 100 µM and the TGI [41] was over 100 µM. It also gave a TGI [42] of over 100 µM, a TGI [43] of over 100 µM and a TGI [44] of over 100 µM. The TGI [45] was over 100 µM, the TGI [46] was over 100 µM and the TGI [48] was over 100 µM. The TGI [49] was over 100 µM, the TGI [50] was over 100 µM and the TGI [51] was over 100 µM. The TGI [52] was over 100 µM, the TGI [66] was over 100 µM and the TGI [53] was over 100 µM.
